In patent US20220096862A1, “METHOD FOR IRRADIATING CELLS WITH LIGHT, METHOD FOR CONTROLLING MEDICAL DEVICE, AND MEDICAL DEVICE” (OLYMPUS CORPORATION, priority 2019, published 2022):

Columns and labels:
A431 tumor bearing mice [1] = assay: Percentage of attenuation of fluorescence versus cellular cytotoxicity after therapeutic light irradiation (PIT), FIG. 4; type: in vivo
Description: The total amount of irradiation is the same in both the case where irradiation is performed with the therapeutic light L with the light intensity of 50 mW/cm^2 or less and the case where irradiation is performed with the therapeutic light L with the light intensity of 100 mW/cm^2 or more. In other words, in the case where irradiation is performed with the therapeutic light L with the light intensity of 50 mW/cm^2 or less, a time period during which the cells C are irradiated is longer than a time period during which the cells C are irradiated with the therapeutic light L with the light intensity of 100 mW/cm^2 or more.
After the cells C are irradiated with the therapeutic light L, if the rate of reduction of fluorescence (the percentage of attenuation of fluorescence) and cellular cytotoxicity have a proportional relation, as shown by a dashed-and-dotted line A in FIG. 4, when the rate of reduction of fluorescence is 100%, cellular cytotoxicity is 100%. Therefore, it should be determined that all cells C disappear if fluorescence is no longer detected.
How ever, as the result of experiments performed by the applicant, the following is found. In actual experiments, as the result of observation that is performed after irradiation, by using the endoscope 1, for example, as the rate of reduction of fluorescence approaches 70% (or little more than 70%), cellular cytotoxicity approaches 100%.

A431 tumor bearing mice [2] = assay: Rates of damage of tumor tissues from pathological images after irradiation at different light intensities (PIT), FIG. 5; type: in vivo; settings: 300 μg/mouse, irradiated one day after administration, total amount 100 J/cm^2, 25 mW/cm^2 or 50 mW/cm^2 compared with 100 mW/cm^2 or 300 mW/cm^2, tumors excised after one more day
Description: Pan-IR700, which is the photosensitizing agent 20, is administered to the A431 tumor bearing mice at 300 μg/mouse. One day after the administration of Pan-IR700, the cells C are irradiated with light of respective irradiation intensities shown in FIG. 5 up to the same total amount (100 J/cm^2). After one more day, tumor tissues are excised, and rates of damage of the tissues are calculated from pathological images of cross sections of the tumors.

“Pan-IR700: phthalocyanine fluorescent dye (IRDye 700) attached to one antibody molecule (panitumumab, monoclonal antibody to Human EGFR)” was tested, and the cellular cytotoxicity (A431 tumor bearing mice [1]; as the rate of reduction of fluorescence approaches 70% (or little more than 70%), after irradiation with therapeutic light L, FIG. 4) was ~100%, the “relationship of reduction of fluorescence and cellular cytotoxicity” value (A431 tumor bearing mice [1]; therapeutic light L with light intensity of 50 mW/cm^2 or less (solid line B, FIG. 4)) was “linear relationship” and the “rate of cellular cytotoxicity” value (A431 tumor bearing mice [1]; therapeutic light L with light intensity of 100 mW/cm^2 or more (solid line D, FIG. 4), reduction of fluorescence also found) was “low”. The “cellular cytotoxicity (rates of damage of the tissues)” value (A431 tumor bearing mice [2]) was “greater”.
